Source: US20220227796A1, “EGFR INHIBITORS, COMPOSITIONS AND METHODS THERE OF” (Betta Pharmaceuticals Co., Ltd., priority 2019, published 2022)
Where a name gives a salt, the structure may show the parent alone.

Assays:
H1975(L858R/T790M) = assay: H1975 cells proliferation assay; assay type: cell-based; settings: Homo sapiens, NCI-H1975; cell proliferation, 72 h, CellTiter Glo; class symbols; read-out: H1975 IC50
Method: (§1) Test 3 H1975 and HCC827 Cells Proliferation Assay
(§2) a) The medium was preheated in a 37° C. water bath in advance.
(§3) b) Remove the cryogenic vials from the liquid nitrogen tank, quickly put it into a 37° C. water bath, and completely melt it in 1 min.
(§4) c) Transfer the cell suspension to a 15 mL centrifuge tube containing 8 mL medium, centrifuge 1000 rpm, 5 min.
(§5) d) Discard the supernatant, resuspend the cells in 1 mL medium, and transfer to a 75 cm^2 flask containing 15 mL medium, culture the cells in an incubator at 37° C., 5% CO2.
(§6) b) Collect cell to a 15 mL centrifuged tube, centrifuge at 1000 rpm for 5 min. Discard the supernatant, count, and make the cell density at 1×10^4 cells/mL, then place it in a 37° C., 5% CO2 incubator.
(§7) b) The above compound solution was diluted 1:20 times with culture medium to prepare a 10 fold working solution;
(§8) a) Take cells in log phase growth, centrifuge at 1000 rpm for 5 min, then resuspend the cells with culture medium, then count cells;
(§9) b) Cells were seeded to 96-well cell culture plate with density at 2000 cells/well (suitable for H1975 cell) and at 2500 cells/well (suitable for HCC827 cell);
(§10) The blank control well was a culture medium (0.5% DMSO);
(§11) b) The cells were incubated for an additional 72 h in the incubator.
(§12) a) Remove the 96-well cell culture plate and add 50 μl of CTG reagent (CellTiter Glo kit, promega, Cat #G7573).
(§13) b) Plate was shaked for 2 min and then let it cool for 10 min at room temperature.
(§14) c) The Luminescence signal value was read using a PerkinElmer reader.
(§15) Experimental Data Analysis
(§16) Data were analyzed using GraphPad Prism 6.0 software to obtain a fitted curve of compound activity.
(§17) Y=Bottom+(Top−Bottom)/(1+10^((Log IC50−X)*HillSlope));
(§18) The cells proliferation assay results are expressed with IC50, shown as Table 2.

Ba/F3-Δ19del/T790M/C797S = Ba/F3-Δ19del/T790M/C797S (Homo sapiens, UniProt P00533, T790M/C797S, cells depend on it, form not given); assay: Ba/F3-Δ19del/T790M/C797S cells proliferation assay; assay type: cell-based; settings: cell proliferation, 72 h, CellTiter Glo; class symbols; read-out: BaF3 Δ 19del/T790M/C797S IC50
Method: (§19) a) The medium was preheated in a 37 water bath in advance.
as §3
(§20) c) Transfer the cell suspension to a 15 mL centrifuge tube containing 8 mL medium, centrifuge 1000 rpm, 5 min,
as §5
(§21) a) The medium was preheated in a 37° C.; water bath in advance.
as §6, §7, §8
(§22) b) Cells were seeded to 96-well cell culture plate with density at 2000 cells/well;
as §10, §11, §12, §13, §14, §15, §16
(§23) Y=Bottom+(Top−Bottom)/(1+10^((Log IC50−X)*Hill Slope));
as §18

EGFR Δ19del/T790M/C797S = EGFR Δ19del/T790M/C797S (Homo sapiens, UniProt P00533, T790M/C797S, form not given); assay: Kinase assay (mobility shift) for EGFR Δ19del/T790M/C797S; assay type: biochemical; settings: read-out: EGFR Δ 19del/T790M/C797S IC50
Method: (§24) Enzyme reaction protocol are as followed:
(§25) 1. Preparing 1* Kinase buffer as followed.
(§26) 2. Preparing Compound Concentration Gradient: Compounds were tested at a concentration of 300 nM, diluted to 100-fold final concentration in 100% DMSO solution in 96-well plates, and compounds were diluted 3 times with Precision, 10 concentrations. Each concentration of the compound was then further diluted to a 5-fold final concentration of the intermediate dilution solution using 1* Kinase buffer.
(§27) 3. 5 μL of each of the prepared intermediate dilution compounds was separately added to the compound wells of the 384-well plate, and each concentration was tested for duplicate wells; 5 μL of 5% DMSO was added to the negative control wells and the positive control wells, respectively.
(§28) 4. 2.5-fold final concentration of the kinase solution was prepared using 1*Kinase buffer.
(§29) 6. Centrifuge at 1000 rpm for 30 seconds, shake the reaction plate and incubate for 10 minutes at room temperature.
(§30) 8. 10 μL of a 2.5-fold final concentration of a mixed solution of ATP and a substrate was added to initiate the reaction.
(§31) 9. Centrifuge the 384-well plate at 1000 rpm for 30 seconds, mix by shaking, and incubate at room temperature for the corresponding time.
(§32) 10. Add 30 μL of the stop solution to stop the kinase reaction, centrifuge at 1000 rpm for 30 seconds, and mix by shaking.
(§33) 11. Read the conversion rate with Caliper EZ Reader.
(§34) Convert conversion values to inhibition values:
(§35) Percent inhibition=(max−conversion % sample)/(max−min)*100.
(§36) “max” stands for the mean value of the positive control well ratio; “min” stands for the mean value of the negative control well; conversion % sample: sample conversion reading.
(§37) Fit the data in log(inhibitor) vs. response Variable slope of GraphPad Prism 5 to obtain IC50 values.
(§38) Equation used is: Y=Bottom+(Top−Bottom)/(1+(IC50/X)*HillSlope)

EGFR T790M/L858R = EGFR T790M/L858R (Homo sapiens, UniProt P00533, L858R/T790M); assay: Kinase assay (mobility shift) for EGFR T790M/L858R; assay type: biochemical
Method: as §24, §25, §26, §27, §28, §29, §30, §31, §32, §33, §34, §35, §36, §37, §38

Ba/F3-L858R/T790M/C797S = target: T1, Ba/F3-L858R/T790M/C797S (Homo sapiens, UniProt P00533, T790M/C797S/L858R, cells depend on it); assay: Ba/F3-L858R/T790M/C797S cells proliferation assay; assay type: cell-based; settings: cell proliferation, 72 h, CellTiter Glo; class symbols; read-out: BaF3 L858R/T790M/C797S IC50
T1 construct: BaF3 L858R/T790M/C797S IC50; other: cell proliferation, 72 h, CellTiter Glo; class symbols; numeric values
Method: as §19, §3, §20, §5, §21, §6, §7, §8, §22, §10, §11, §12, §13, §14, §15, §16, §23, §18

HCC827(Δ19del) = assay: HCC827 cells proliferation assay; assay type: cell-based; settings: Homo sapiens, HCC827; cell proliferation, 72 h, CellTiter Glo; class symbols; read-out: HCC827 IC50
Method: as §1, §2, §3, §4, §5, §6, §7, §8, §9, §10, §11, §12, §13, §14, §15, §16, §17, §18

EGFR L858R = EGFR L858R (Homo sapiens, UniProt P00533, L858R); assay: Kinase assay (mobility shift) for EGFR L858R; assay type: biochemical
Method: as §24, §25, §26, §27, §28, §29, §30, §31, §32, §33, §34, §35, §36, §37, §38

Sequence of Ba/F3-Δ19del/T790M/C797S (P00533 with tags, fused parts or gaps DEL746-750/T790M/C797S, form open): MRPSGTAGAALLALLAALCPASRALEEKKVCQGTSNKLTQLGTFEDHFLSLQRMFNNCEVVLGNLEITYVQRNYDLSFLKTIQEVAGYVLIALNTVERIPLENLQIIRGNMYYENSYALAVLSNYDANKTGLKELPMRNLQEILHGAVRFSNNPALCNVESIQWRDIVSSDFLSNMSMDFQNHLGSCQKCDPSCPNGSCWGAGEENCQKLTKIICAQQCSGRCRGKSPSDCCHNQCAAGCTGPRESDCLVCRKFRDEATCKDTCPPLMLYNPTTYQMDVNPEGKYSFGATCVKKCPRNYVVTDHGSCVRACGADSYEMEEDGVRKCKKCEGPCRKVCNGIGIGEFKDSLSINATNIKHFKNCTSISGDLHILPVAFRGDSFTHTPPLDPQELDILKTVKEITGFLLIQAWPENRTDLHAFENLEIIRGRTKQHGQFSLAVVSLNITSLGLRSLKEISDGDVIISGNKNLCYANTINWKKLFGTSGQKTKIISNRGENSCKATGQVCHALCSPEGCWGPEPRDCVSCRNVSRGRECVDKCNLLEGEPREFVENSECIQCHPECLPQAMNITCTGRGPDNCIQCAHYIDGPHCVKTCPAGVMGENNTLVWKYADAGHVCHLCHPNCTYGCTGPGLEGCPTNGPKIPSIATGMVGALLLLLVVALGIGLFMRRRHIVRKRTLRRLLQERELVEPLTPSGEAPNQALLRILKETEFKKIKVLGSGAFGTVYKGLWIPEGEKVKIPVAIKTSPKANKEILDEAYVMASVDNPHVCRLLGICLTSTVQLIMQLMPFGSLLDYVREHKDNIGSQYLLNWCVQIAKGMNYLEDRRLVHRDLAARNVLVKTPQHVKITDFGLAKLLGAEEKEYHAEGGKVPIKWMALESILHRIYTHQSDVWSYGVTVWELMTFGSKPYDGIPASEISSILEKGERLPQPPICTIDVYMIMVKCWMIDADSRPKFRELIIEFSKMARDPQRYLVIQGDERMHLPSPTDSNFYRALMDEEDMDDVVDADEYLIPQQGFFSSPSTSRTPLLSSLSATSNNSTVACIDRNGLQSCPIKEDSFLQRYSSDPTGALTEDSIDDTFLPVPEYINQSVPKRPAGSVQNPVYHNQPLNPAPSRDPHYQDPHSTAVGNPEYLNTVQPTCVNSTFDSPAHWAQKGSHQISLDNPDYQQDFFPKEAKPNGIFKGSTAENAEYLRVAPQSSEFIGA
Sequence of EGFR Δ19del/T790M/C797S (P00533 with tags, fused parts or gaps DEL746-750/T790M/C797S, form open): as above
T1 sequence (P00533 whole entry T790M/C797S/L858R): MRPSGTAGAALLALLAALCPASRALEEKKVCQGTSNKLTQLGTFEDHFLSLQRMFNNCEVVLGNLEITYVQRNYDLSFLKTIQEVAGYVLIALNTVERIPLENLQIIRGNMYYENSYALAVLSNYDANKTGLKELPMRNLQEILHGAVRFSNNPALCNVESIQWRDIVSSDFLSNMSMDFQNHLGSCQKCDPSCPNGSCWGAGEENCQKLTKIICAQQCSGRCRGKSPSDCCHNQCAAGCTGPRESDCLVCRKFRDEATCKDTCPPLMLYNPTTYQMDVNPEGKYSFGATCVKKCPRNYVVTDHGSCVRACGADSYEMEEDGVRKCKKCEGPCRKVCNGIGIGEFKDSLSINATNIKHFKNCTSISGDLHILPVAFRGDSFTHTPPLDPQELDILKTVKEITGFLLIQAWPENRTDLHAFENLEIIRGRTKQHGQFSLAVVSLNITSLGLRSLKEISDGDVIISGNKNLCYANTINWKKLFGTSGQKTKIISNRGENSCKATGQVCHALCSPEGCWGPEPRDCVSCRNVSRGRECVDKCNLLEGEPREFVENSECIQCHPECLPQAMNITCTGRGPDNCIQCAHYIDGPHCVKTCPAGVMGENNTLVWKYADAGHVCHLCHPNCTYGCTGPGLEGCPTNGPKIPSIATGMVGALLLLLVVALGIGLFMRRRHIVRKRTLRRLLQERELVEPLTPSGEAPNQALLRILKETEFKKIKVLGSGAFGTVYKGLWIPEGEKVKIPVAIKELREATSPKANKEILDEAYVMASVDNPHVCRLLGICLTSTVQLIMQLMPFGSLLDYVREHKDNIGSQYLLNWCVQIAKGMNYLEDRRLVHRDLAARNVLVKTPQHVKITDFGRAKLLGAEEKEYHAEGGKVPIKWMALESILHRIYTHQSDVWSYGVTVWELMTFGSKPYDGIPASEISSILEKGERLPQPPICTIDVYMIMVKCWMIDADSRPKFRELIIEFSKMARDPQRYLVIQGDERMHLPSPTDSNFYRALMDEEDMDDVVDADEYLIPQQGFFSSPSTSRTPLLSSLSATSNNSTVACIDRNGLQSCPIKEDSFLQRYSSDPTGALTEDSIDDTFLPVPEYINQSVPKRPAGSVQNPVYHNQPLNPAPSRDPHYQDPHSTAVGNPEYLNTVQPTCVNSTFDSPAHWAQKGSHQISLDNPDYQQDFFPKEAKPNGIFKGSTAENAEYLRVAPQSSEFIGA
Sequence of EGFR T790M/L858R (P00533 25-1210 T790M/L858R): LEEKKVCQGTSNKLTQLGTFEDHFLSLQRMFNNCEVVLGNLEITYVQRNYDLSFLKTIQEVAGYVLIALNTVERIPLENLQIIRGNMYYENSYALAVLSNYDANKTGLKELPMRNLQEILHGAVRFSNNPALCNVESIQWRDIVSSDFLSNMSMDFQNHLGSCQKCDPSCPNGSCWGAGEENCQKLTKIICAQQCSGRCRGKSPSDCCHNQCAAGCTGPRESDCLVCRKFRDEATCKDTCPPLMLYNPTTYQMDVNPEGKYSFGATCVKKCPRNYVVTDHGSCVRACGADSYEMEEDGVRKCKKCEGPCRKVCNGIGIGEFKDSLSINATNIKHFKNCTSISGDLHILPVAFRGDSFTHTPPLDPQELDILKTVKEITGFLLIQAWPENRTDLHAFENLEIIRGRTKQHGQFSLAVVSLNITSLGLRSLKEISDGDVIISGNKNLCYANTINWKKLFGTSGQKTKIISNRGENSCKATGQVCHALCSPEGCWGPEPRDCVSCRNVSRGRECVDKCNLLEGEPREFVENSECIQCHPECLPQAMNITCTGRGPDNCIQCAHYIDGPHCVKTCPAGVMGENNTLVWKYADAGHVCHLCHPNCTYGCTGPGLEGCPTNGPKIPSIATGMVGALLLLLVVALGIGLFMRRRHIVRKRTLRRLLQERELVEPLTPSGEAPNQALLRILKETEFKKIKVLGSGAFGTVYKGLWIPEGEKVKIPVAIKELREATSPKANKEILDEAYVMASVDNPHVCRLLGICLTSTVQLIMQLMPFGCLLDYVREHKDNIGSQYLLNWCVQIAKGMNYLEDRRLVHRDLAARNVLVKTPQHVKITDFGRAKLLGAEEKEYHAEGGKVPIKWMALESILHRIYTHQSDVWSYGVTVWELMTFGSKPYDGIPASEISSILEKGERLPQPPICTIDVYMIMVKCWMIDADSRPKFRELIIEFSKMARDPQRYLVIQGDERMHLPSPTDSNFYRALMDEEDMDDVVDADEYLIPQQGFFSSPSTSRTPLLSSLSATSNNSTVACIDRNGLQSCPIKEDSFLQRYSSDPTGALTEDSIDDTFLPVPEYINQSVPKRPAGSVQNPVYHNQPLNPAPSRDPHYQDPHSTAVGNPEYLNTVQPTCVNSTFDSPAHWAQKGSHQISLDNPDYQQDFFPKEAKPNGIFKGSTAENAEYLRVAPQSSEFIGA

IC50 (H1975(L858R/T790M)) [nM] | GI50 (Ba/F3-Δ19del/T790M/C797S) [nM] | IC50 (EGFR Δ19del/T790M/C797S) [nM] | IC50 (EGFR T790M/L858R) [nM] | GI50 (Ba/F3-L858R/T790M/C797S) [nM] | IC50 (HCC827(Δ19del)) [nM] | IC50 (EGFR L858R) [nM] | SMILES
< 10 | < 10 | < 10 | < 10 | < 10 | < 10 | 10 to 100 | C=CC(=O)Nc1cc(Nc2ncc(Cl)c(Nc3ccccc3P(C)(C)=O)n2)ccc1N1CCC2(CCC(N(C)C)CC2)CC1 [Compound 1, N-(5-((5-chloro-4-((2-(dimethylphosphoryl)phenyl)amino)pyrimidin-2-yl)amino)-2-(9-(dimethylamino)-3-azaspiro[5.5]undecan-3-yl)phenyl)acrylamide]
10 to 50 | 10 to 50 | < 10 |  | 10 to 50 | 10 to 50 |  | CN(C)C/C=C/C(=O)Nc1cc(Nc2ncc(Cl)c(Nc3ccccc3P(C)(C)=O)n2)ccc1N1CCC2(CC1)CC(N(C)C)C2 [Compound 8, (E)-N-(5-((5-chloro-4-((2-(dimethylphosphoryl)phenyl)amino)pyrimidin-2-yl)amino)-2-(2-(dimethylamino)-7-azaspiro[3.5]nonan-7-yl)phenyl)-4-(dimethylamino)but-2-enamide]
< 10 | < 10 | < 10 |  | < 10 | 10 to 50 |  | C=CC(=O)Nc1cc(Nc2ncc(Cl)c(Nc3ccc4nccnc4c3P(C)(C)=O)n2)ccc1N1CCC2(CC1)CC(N(C)C)C2 [Compound 10, N-(5-((5-chloro-4-((5-(dimethylphosphoryl)quinoxalin-6-yl)amino)pyrimidin-2-yl)amino)-2-(2-(dimethylamino)-7-azaspiro[3.5]nonan-7-yl)phenyl)acrylamide]
< 10 | 10 to 50 | < 10 | < 10 | 10 to 50 | < 10 | < 10 | C=CC(=O)Nc1cc(Nc2ncc(Cl)c(Nc3ccccc3P(C)(C)=O)n2)ccc1N(C)CCN(C)C [Compound 15, N-(5-((5-chloro-4-((2-(dimethylphosphoryl)phenyl)amino)pyrimidin-2-yl)amino)-2-((2-(dimethylamino)ethyl)(methyl)amino)phenyl)acrylamide]
< 10 | 10 to 50 | < 10 | < 10 | 10 to 50 | 10 to 50 | < 10 | C=CC(=O)Nc1cc(Nc2ncc(Cl)c(Nc3ccccc3P(C)(C)=O)n2)ccc1N1CCC(N2CCN(C)CC2)CC1 [Compound 16, N-(5-((5-chloro-4-((2-(dimethylphosphoryl)phenyl)amino)pyrimidin-2-yl)amino)-2-(4-(4-methylpiperazin-1-yl)piperidin-1-yl)phenyl)acrylamide]
10 to 50 | 10 to 50 | < 10 | < 10 | 10 to 50 | 10 to 50 | < 10 | C=CC(=O)Nc1cc(Nc2ncc(Cl)c(Nc3ccccc3P(C)(C)=O)n2)ccc1N1CCN2CCC[C@H]2C1 [Compound 17, (S)—N-(5-((5-chloro-4-((2-(dimethylphosphoryl)phenyl)amino)pyrimidin-2-yl)amino)-2-(hexahydropyrrolo[1,2-a]pyrazin-2(1H)-yl)phenyl)acrylamide]
< 10 | 10 to 50 | < 10 | < 10 | 10 to 50 | < 10 | < 10 | C=CC(=O)Nc1cc(Nc2ncc(Cl)c(Nc3ccccc3P(C)(C)=O)n2)ccc1N(C)CCN1CCCC1 [Compound 18, N-(5-((5-chloro-4-((2-(dimethylphosphoryl)phenyl)amino)pyrimidin-2-yl)amino)-2-(methyl(2-(pyrrolidin-1-yl)ethyl)amino)phenyl)acrylamide]
10 to 50 | < 10 | < 10 |  | < 10 | 10 to 50 |  | C=CC(=O)Nc1cc(Nc2ncc(Cl)c(Nc3ccc4ccccc4c3P(C)(C)=O)n2)ccc1N1CCC2(CC1)CC(N(C)C)C2 [Compound 23, N-(5-((5-chloro-4-((1-(dimethylphosphoryl)naphthalen-2-yl)amino)pyrimidin-2-yl)amino)-2-(2-(dimethylamino)-7-azaspiro[3.5]nonan-7-yl)phenyl)acrylamide hydrochloric acid salt]
10 to 50 | < 10 | < 10 |  | 10 to 50 | 10 to 50 |  | C=CC(=O)Nc1cc(Nc2ncc(Cl)c(Nc3ccc4ncccc4c3P(C)(C)=O)n2)ccc1N1CCC2(CC1)CC(N(C)C)C2 [Compound 30, N-(5-((5-chloro-4-((5-(dimethylphosphoryl)quinolin-6-yl)amino)pyrimidin-2-yl)amino)-2-(2-(dimethylamino)-7-azaspiro[3.5]nonan-7-yl)phenyl)acrylamide]
< 10 | < 10 | < 10 |  | < 10 | < 10 |  | C=CC(=O)Nc1cc(Nc2ncc(Br)c(Nc3ccc4nccnc4c3P(C)(C)=O)n2)ccc1N(C)CCN(C)C [Compound 34, N-(5-(5-bromo-4-(5-(dimethylphosphoryl)quinoxalin-6-ylamino)pyrimidin-2-ylamino)-2-((2-(dimethylamino)ethyl)(methyl)amino)phenyl)acrylamide]
< 10 | < 10 | < 10 |  | < 10 | < 10 |  | C=CC(=O)Nc1cc(Nc2ncc(Br)c(Nc3ccc4nccnc4c3P(C)(C)=O)n2)ccc1N1CCC2(CC1)CC(N(C)C)C2 [Compound 35, N-(5-(5-bromo-4-(5-(dimethylphosphoryl)quinoxalin-6-ylamino)pyrimidin-2-ylamino)-2-(2-(dimethylamino)-7-azaspiro[3.5]nonan-7-yl)phenyl)acrylamide]
< 10 | < 10 | < 10 | < 10 | < 10 | < 10 | < 10 | C=CC(=O)Nc1cc(Nc2ncc(Cl)c(Nc3ccccc3P(C)(C)=O)n2)ccc1N1CCC2(CC1)CC(N(C)C)C2 [Compound 36, N-(5-((5-chloro-4-((2-(dimethylphosphoryl)phenyl)amino)pyrimidin-2-yl)amino)-2-(2-(dimethylamino)-7-azaspiro[3.5]nonan-7-yl)phenyl)acrylamide]
